Assay results published in patent publication US9512075B2 (OKAYAMA UNIVERSITY, priority 2012, dated 2016).
Values after ≈ are worked out from the molar mass of the structure shown. Read-outs that look alike come from different tables or passages of the source.

Legend:
Format in all cases: cell-based
[1] = test system: Staphylococcus aureus Smith strain; test: MIC for Staphylococcus aureus Smith strain; settings: Smith strain, regular bouillon medium, 37° C. overnight, turbidity, read-out: MIC Straphyrococcus aureus Smith
[2] = test system: Staphylococcus aureus 209P strain; test: MIC for Staphylococcus aureus 209P strain; settings: Staphylococcus aureus, read-out: MIC Straphyrococcus aureus 209P
[3] = test system: Staphylococcus aureus MRSA No. 17 (methicillin-resistant Staphylococcus aureus: MRSA); test: MIC for Staphylococcus aureus MRSA No. 17; settings: MRSA No. 17, regular bouillon medium, 37° C. overnight, turbidity, read-out: MIC Straphyrococcus aureus MRSA No. 17 (MRSA)
[4] = test system: Enterococcus faecalis 5038 strain; test: MIC for Enterococcus faecalis 5038 strain; settings: 5038 strain, Heart Infusion Broth medium, 37° C. overnight, turbidity, read-out: MIC Enterococcus faecalis 5038
[5] = test system: Enterococcus faecalis NCTC12201 strain (vancomycin-resistant Enterococcus: VRE); test: MIC for Enterococcus faecalis NCTC12201 strain (VRE); settings: NCTC12201 strain (VRE), Heart Infusion Broth medium, 37° C. overnight, turbidity, read-out: MIC Enterococcus faecalis NCTC 12201 (VRE)
[6] = test system: Clostridium difficile JCM1296 strain; test: microbe, parasite or virus in culture; settings: Clostridioides difficile, JCM1296, read-out: MIC Clostridium difficile JCM1296
[7] = test system: Clostridium perfringens PB6K strain; test: microbe, parasite or virus in culture; settings: Clostridium perfringens, PB6KSTRAIN, read-out: MIC Clostridium perfringens PB6K, PB6K strain; CD medium, 37° C. overnight, 10% CO2-containing anaerobic conditions
[8] = test system: Escherichia coli K-12 strain; test: MIC for Escherichia coli K-12 strain; settings: Escherichia coli, K12STRAIN, read-out: MIC Escherichia coli K12
[9] = test system: Escherichia coli BE1121 strain; test: MIC for Escherichia coli BE1121 strain; settings: Escherichia coli, BE1121STRAIN, read-out: MIC Escherichia coli BE1121
[10] = 209P strain, regular bouillon medium, 37° C. overnight, turbidity
[11] = K-12 strain, regular bouillon medium, 37° C. overnight, turbidity
[12] = BE1121 strain, regular bouillon medium, 37° C. overnight, turbidity

Compound | MIC [1] | MIC [2, 10] | MIC [3] | MIC [4] | MIC [5] | MIC [6] | MIC [7] | MIC [8, 11] | MIC [9, 12] | MIC ([2]; 209P) | MIC [8] | MIC [9]
CC(C)[C@H]1CC[C@H](C)CC1OCC(=O)c1c(O)c2ccccc2oc1=O (stereo in doubt) [B006, 4-hydroxy-3-menthyloxyacetylcoumarin] | 1 µg/mL (≈ 2.79 µM) | 1 µg/mL (≈ 2.79 µM) | 2 µg/mL (≈ 5.58 µM) | 2 µg/mL (≈ 5.58 µM) | 2 µg/mL (≈ 5.58 µM) | 2 µg/mL (≈ 5.58 µM) | 1 µg/mL (≈ 2.79 µM) | 128 µg/mL (≈ 357 µM) | 2 µg/mL (≈ 5.58 µM) |  |  | 
CCCCCCCCCC(O)=C1C(=O)Nc2ccccc21 [A001, 3-decanoyl-2-oxyindole] | 32 µg/mL (≈ 111 µM) | 16 µg/mL (≈ 55.7 µM) | 32 µg/mL (≈ 111 µM) | 16 µg/mL (≈ 55.7 µM) | 16 µg/mL (≈ 55.7 µM) |  |  | 256 µg/mL (≈ 891 µM) | 256 µg/mL (≈ 891 µM) |  |  | 
CCCCCCCCCC(O)=C1C(=O)Nc2cc(Cl)ccc21 [A002, 3-decanoyl-6-chloro-2-oxyindole] | 16 µg/mL (≈ 49.7 µM) |  | 16 µg/mL (≈ 49.7 µM) | 16 µg/mL (≈ 49.7 µM) | 15 µg/mL (≈ 46.6 µM) | 32 µg/mL (≈ 99.4 µM) | 32 µg/mL (≈ 99.4 µM) |  |  | 16 µg/mL (≈ 49.7 µM) | 128 µg/mL (≈ 398 µM) | 128 µg/mL (≈ 398 µM)
CCCCCCCCCC(O)=C1C(=O)N(C(=O)OC(C)(C)C)c2cc(Cl)ccc21 [A003, N-Boc-3-decanoyl-6-chloro-2-oxyindole] | 256 µg/mL (≈ 607 µM) | 256 µg/mL (≈ 607 µM) | 256 µg/mL (≈ 607 µM) | 128 µg/mL (≈ 303 µM) | 128 µg/mL (≈ 303 µM) | 0.5 µg/mL (≈ 1.18 µM) | 1 µg/mL (≈ 2.37 µM) | 256 µg/mL (≈ 607 µM) | 128 µg/mL (≈ 303 µM) |  |  | 
CCCCCCCCCC(O)=C1C(=O)Nc2ccc(F)cc21 [A004, 3-decanoyl-5-fluoro-2-oxyindole] | 16 µg/mL (≈ 52.4 µM) |  | 32 µg/mL (≈ 105 µM) | 16 µg/mL (≈ 52.4 µM) | 15 µg/mL (≈ 49.1 µM) | 2 µg/mL (≈ 6.55 µM) | 8 µg/mL (≈ 26.2 µM) |  |  | 16 µg/mL (≈ 52.4 µM) | 128 µg/mL (≈ 419 µM) | 128 µg/mL (≈ 419 µM)
CCCCCCCCCC(=O)N1C(=O)C(=C(O)CCCCCCCCC)c2ccccc21 [A005, 1,3-didecanoyl-2-oxyindole] | 64 µg/mL (≈ 145 µM) | 32 µg/mL (≈ 72.5 µM) | 32 µg/mL (≈ 72.5 µM) | 32 µg/mL (≈ 72.5 µM) | 32 µg/mL (≈ 72.5 µM) | 2 µg/mL (≈ 4.53 µM) | 16 µg/mL (≈ 36.2 µM) | 128 µg/mL (≈ 290 µM) | 128 µg/mL (≈ 290 µM) |  |  | 
CCCCCCCCCC(O)=C1C(=O)N(C)c2ccccc21 [A007, N-methyl-3-decanoyl-2-oxyindole] | 8 µg/mL (≈ 26.5 µM) |  | 128 µg/mL (≈ 425 µM) | 32 µg/mL (≈ 106 µM) | 15 µg/mL (≈ 49.8 µM) | 2 µg/mL (≈ 6.64 µM) | 8 µg/mL (≈ 26.5 µM) |  |  | 32 µg/mL (≈ 106 µM) | 256 µg/mL (≈ 849 µM) | 256 µg/mL (≈ 849 µM)
CCCCC1CCC(C(O)=C2C(=O)N(C(=O)OC(C)(C)C)c3ccccc32)CC1 (stereo not shown) [A008, N-Boc-3-(4-butylcyclohexylcarbonyl)-2-oxyindole] | 128 µg/mL (≈ 320 µM) | 64 µg/mL (≈ 160 µM) | 256 µg/mL (≈ 641 µM) | 128 µg/mL (≈ 320 µM) | 128 µg/mL (≈ 320 µM) | 1 µg/mL (≈ 2.5 µM) | 2 µg/mL (≈ 5.01 µM) | 128 µg/mL (≈ 320 µM) | 128 µg/mL (≈ 320 µM) |  |  | 
CCCCC1CCC(C(O)=C2C(=O)N(C(=O)OC(C)(C)C)c3cc(Cl)ccc32)CC1 (stereo not shown) [A009, N-Boc-3-(4-butylcyclohexylcarbonyl)-6-chloro-2-oxyindole] | 32 µg/mL (≈ 73.7 µM) | 128 µg/mL (≈ 295 µM) | 256 µg/mL (≈ 590 µM) | 4 µg/mL (≈ 9.22 µM) | 4 µg/mL (≈ 9.22 µM) | 0.5 µg/mL (≈ 1.15 µM) | 1 µg/mL (≈ 2.3 µM) | 128 µg/mL (≈ 295 µM) | 128 µg/mL (≈ 295 µM) |  |  | 
CCCCC1CCC(C(O)=C2C(=O)N(C(C)=O)c3ccccc32)CC1 (stereo not shown) [A010, N-acetyl-3-(4-butylcyclohexylcarbonyl)-2-oxyindole] | 0.5 µg/mL (≈ 1.46 µM) | 2 µg/mL (≈ 5.86 µM) | 1 µg/mL (≈ 2.93 µM) | 0.5 µg/mL (≈ 1.46 µM) | 0.5 µg/mL (≈ 1.46 µM) | 0.25 µg/mL (≈ 0.732 µM) | 1 µg/mL (≈ 2.93 µM) | 256 µg/mL (≈ 750 µM) | 256 µg/mL (≈ 750 µM) |  |  | 
CCCCCCCCCC(=O)NCC(O)=C1C(=O)N(C(=O)OC(C)(C)C)c2ccccc21 [A011, N-Boc-3-decanoylaminoacetyl-2-oxyindole] | 128 µg/mL (≈ 288 µM) | 256 µg/mL (≈ 576 µM) | 256 µg/mL (≈ 576 µM) | 256 µg/mL (≈ 576 µM) | 256 µg/mL (≈ 576 µM) | 2 µg/mL (≈ 4.5 µM) | 2 µg/mL (≈ 4.5 µM) | 128 µg/mL (≈ 288 µM) | 128 µg/mL (≈ 288 µM) |  |  | 
